Values of other authors in US6635803B1, “Method to improve drought tolerance in plants” (Regents of the University of California, priority 1999, dated 2003).

Assays:
K+in channel = settings: 10 mM
[1] = test system: K+in channels in guard cells; settings: cytosolic second messengers

Row | Structure (SMILES) | block of K+in channel currents (K+in channel) | final stomatal apertures (stomata) | effect on K+in channels [1]
1 | [Ba+2] [Ba^2+] | 90% | does not affect | 
2 | [Ca+2] [Ca^2+] |  |  | inhibit
3 | Nc1nc2c(ncn2[C@@H]2O[C@H](COP(=O)(O)OP(=O)(O)OP(O)(O)=S)[C@@H](O)[C@H]2O)c(=O)[nH]1 [GTPγS] |  |  | inhibit
4 | O=P(O)(O)O[C@@H]1[C@H](O)[C@H](O)[C@@H](OP(=O)(O)O)[C@H](OP(=O)(O)O)[C@H]1O [inositol-1,4,5-triphosphate] |  |  | inhibit
